Experiments:
Assay type in all cases: in vivo
Settings in all cases: pre-emerge, 14 days after application, scale 0-100
[1] = tested on: redroot pigweed (Amaranthus retroflexus, AMARE); experiment: Pre-emerge test, greenhouse herbicide activity screening
Source text: (§1) A standard greenhouse herbicide activity screening system was used to evaluate the herbicidal efficacy and crop safety of these test compounds. Seven broadleaf weed species including redroot pigweed (Amaranthus retroflexus, AMARE, velvetleaf (Abutilon theophrasti, ABUTH), sicklepod (Cassia obtusifolia, CASOB), ivyleaf morningglory (Ipomoea hederacea, IPOHE), lambsquarters (Chenopodium album, CHEAL), common ragweed (Ambrosia artemisizfolia L., AMBEL), and cocklebur (Xanthium strumarium, XANST) were used as test species. Four grass weed species including green foxtail (Setaria viridis, SETVI), barnyardgrass (Echinochloa crus-galli, ECHCG), johnsongrass (Sorghum halepense, SORHA), and large crabgrass (Digitaria sanguinalis, DIGSA) were also used. In addition, three crop species, field corn (Zea mays L., var. Dekalb 535, CORN), soybean (Glycine max L., var. Pella 86, SOY), and is upland rice (Oryza sp., var. Tebonnet, RICE) were included.
(§2) All plants were grown in 10 cm square plastic pots which were filled with a sandy loam soil mix. For pre-emerge tests, seeds were planted one day prior to application of the test compounds. For post-emerge tests, seeds were planted 8-21 days prior to the test to allow emergence and good foliage development prior to application of the test substances. At the time of the post-emerge application, plants of all species were usually at the 2-3 leaf stage of development.
All test compounds Were dissolved in acetone and applied to the test units in a volume of 187 l /ha. […] Plants were arranged on a shelf so that the top of the canopy (post-emerge) or top of the soil surface (pre-emerge) was 40-45 cm below the nozzle. Pressurized air was used to force the test solution through the nozzle as it was mechanically advanced (via electrically driven chain drive) over the top of all test plants/pots. This application simulates a typical commercial field herbicide application.
(§3) In the post-emerge test, a commercial non-ionic surfactant was also included (0.25% v/v) to enhance wetting of the leaf surfaces of target plants. Immediately after application, test units of the pre-emerge applications were watered at the soil surface to incorporate the test materials. Subsequently, these test units were bottom-watered. Post-emerge test units were always bottom-watered.
(§4) At 14 days after application of the test materials, phytotoxicity ratings were recorded. A rating scale of 0-100 was used as previously described in Research Methods in Weed Science, 2nd edition, B. Truelove, Ed., Southern Weed Science Society, Auburn University, Auburn, Ala. 1977. Briefly, “0” corresponds to no damage and “100” corresponds to complete death of all plants in the test unit. This scale was used both to determine efficacy against weed species and damage to crop species. Herbicide activity data for various compounds of this invention, which are shown by compound No. in Tables 1-8, are shown in Tables 11 and 12.

[2] = tested on: barnyardgrass (Echinochloa crus-galli, ECHCG); experiment: as above
Source text: as §1, §2
(§5) All test compounds Were dissolved in acetone and applied to the test units in a volume of 187 l /ha. Test materials were applied at rates ranging from 15 g ai/ha to 1000 g ai/ha using a track sprayer equipped with a TJ8001E even flow flat fan spray nozzle. Plants were arranged on a shelf so that the top of the canopy (post-emerge) or top of the soil surface (pre-emerge) was 40-45 cm below the nozzle. Pressurized air was used to force the test solution through the nozzle as it was mechanically advanced (via electrically driven chain drive) over the top of all test plants/pots. This application simulates a typical commercial field herbicide application.
as §3, §4

[3] = tested on: green foxtail (Setaria viridis, SETVI); experiment: as above
Source text: as §1, §2, §5, §3, §4

[4] = tested on: ivyleaf morningglory (Ipomoea hederacea, IPOHE); experiment: as above
Source text: as §1, §2, §5, §3, §4

[5] = tested on: lambsquarters (Chenopodium album, CHEAL); experiment: as above
Source text: as §1, §2, §5, §3, §4

[6] = tested on: large crabgrass (Digitaria sanguinalis, DIGSA); experiment: as above
Source text: as §1, §2, §5, §3, §4

[7] = tested on: sicklepod (Cassia obtusifolia, CASOB); experiment: as above
Source text: as §1, §2, §5, §3, §4

[8] = tested on: velvetleaf (Abutilon theophrasti, ABUTH); experiment: as above
Source text: as §1, §2, §5, §3, §4

[9] = tested on: field corn (Zea mays L., var. Dekalb 535, CORN); experiment: Pre-emerge test, crop safety
Source text: as §1, §2, §5, §3, §4

[10] = tested on: upland rice (Oryza sp., var. Tebonnet, RICE); experiment: Pre-emerge test, crop safety
Source text: as §1, §2, §5, §3, §4

SMILES: COc1c(Cl)cc(F)c(-n2c(=O)cc(C(F)(F)F)n(C)c2=O)c1NC(=O)c1cc2ccccc2cc1C [2-157]
- phytotoxicity rating AMARE ([1]; 63 g ai/ha): 100
- phytotoxicity rating AMARE ([1]; 250 g ai/ha): 100
- phytotoxicity rating ECHCG ([2]; 63 g ai/ha): 30
- phytotoxicity rating ECHCG ([2]; 250 g ai/ha): 95
- phytotoxicity rating SETVI ([3]; 63 g ai/ha): 30
- phytotoxicity rating SETVI ([3]; 250 g ai/ha): 70
- phytotoxicity rating IPOHE ([4]; 63 g ai/ha): 40
- phytotoxicity rating IPOHE ([4]; 250 g ai/ha): 100
- phytotoxicity rating CHEAL ([5]; 63 g ai/ha): 100
- phytotoxicity rating CHEAL ([5]; 250 g ai/ha): 100
- phytotoxicity rating DIGSA ([6]; 63 g ai/ha): 35
- phytotoxicity rating DIGSA ([6]; 250 g ai/ha): 70
- phytotoxicity rating CASOB ([7]; 63 g ai/ha): 30
- phytotoxicity rating CASOB ([7]; 250 g ai/ha): 90
- phytotoxicity rating ABUTH ([8]; 63 g ai/ha): 100
- phytotoxicity rating ABUTH ([8]; 250 g ai/ha): 100
- phytotoxicity rating CORN (crop damage) ([9]; 63 g ai/ha): 0
- phytotoxicity rating CORN (crop damage) ([9]; 250 g ai/ha): 45
- phytotoxicity rating RICE (crop damage) ([10]; 63 g ai/ha): 30
- phytotoxicity rating RICE (crop damage) ([10]; 250 g ai/ha): 70

From patent US6355799B1, “Substituted benzene compounds, process for their preparation, and herbicidal and defoliant compositions containing them” (ISK Americas Incorporated, priority 1997, dated 2002)
